Values quoted from earlier work in patent publication US20220226239A1, “POLYMERIC MICELLE COMPLEXES, FORMULATIONS, AND USES THEREOF” (ARAVASC INC., priority 2019, published 2022).

Experiments:
[1] = for pKa (tri-protic phosphate), first value: first of three pKa values; for pKa (tri-protic phosphate), second value: second of three pKa values; for pKa (tri-protic phosphate), third value: third of three pKa values
[2] = target: T1, dihydropyrimidine dehydrogenase (DPD) (Homo sapiens, UniProt Q12882); details: background statement
T1 sequence (Q12882 4-1025): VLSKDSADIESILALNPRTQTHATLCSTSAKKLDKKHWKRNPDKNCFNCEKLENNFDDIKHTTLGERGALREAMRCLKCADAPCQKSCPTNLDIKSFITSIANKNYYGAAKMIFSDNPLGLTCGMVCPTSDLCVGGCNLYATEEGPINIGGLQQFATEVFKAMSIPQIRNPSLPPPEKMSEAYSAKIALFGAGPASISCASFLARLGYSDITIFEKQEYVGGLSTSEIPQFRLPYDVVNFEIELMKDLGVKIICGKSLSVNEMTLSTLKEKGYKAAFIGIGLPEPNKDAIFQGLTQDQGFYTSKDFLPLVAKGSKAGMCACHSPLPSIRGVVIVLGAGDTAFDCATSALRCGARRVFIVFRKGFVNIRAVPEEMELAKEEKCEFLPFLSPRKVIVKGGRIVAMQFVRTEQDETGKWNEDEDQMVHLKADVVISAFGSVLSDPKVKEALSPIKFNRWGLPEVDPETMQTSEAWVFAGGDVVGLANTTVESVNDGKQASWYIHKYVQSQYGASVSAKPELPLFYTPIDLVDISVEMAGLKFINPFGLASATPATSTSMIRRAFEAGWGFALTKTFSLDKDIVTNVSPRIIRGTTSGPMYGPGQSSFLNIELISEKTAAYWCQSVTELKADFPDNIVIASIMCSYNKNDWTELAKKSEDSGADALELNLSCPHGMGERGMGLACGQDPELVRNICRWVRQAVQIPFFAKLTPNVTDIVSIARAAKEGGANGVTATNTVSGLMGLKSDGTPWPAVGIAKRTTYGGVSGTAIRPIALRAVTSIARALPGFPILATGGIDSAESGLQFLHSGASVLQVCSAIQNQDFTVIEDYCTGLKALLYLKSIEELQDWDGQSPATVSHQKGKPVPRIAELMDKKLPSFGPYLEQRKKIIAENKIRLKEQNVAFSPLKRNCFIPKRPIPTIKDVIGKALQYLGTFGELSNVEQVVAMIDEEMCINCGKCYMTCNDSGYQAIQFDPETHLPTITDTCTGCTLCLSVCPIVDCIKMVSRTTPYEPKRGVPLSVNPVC

SMILES	pKa (tri-protic phosphate), first value [1]	Peturbed pKa (physiological pH) [1]	pKa (tri-protic phosphate), second value [1]	pKa (tri-protic phosphate), third value [1]	degradation by dihydropyrimidine dehydrogenase (DPD) [2]
O=c1[nH]c(=O)n([C@H]2C[C@H](O)[C@@H](COP(=O)(O)O)O2)cc1F [FdUMP, 5-Fluoro-2′-deoxyuridine-5′-O-monophosphate]	phosphate) 2.15,	6-6.5	7.20	12.33	
O=c1[nH]cc(F)c(=O)[nH]1 [Formulation 5-FU, 5-fluorouracil]					> 80%
Nc1nc2c(ncn2[C@@H]2O[C@@H]3COP(=O)(O)O[C@H]4[C@@H](O)[C@H](n5cnc6c(N)ncnc65)O[C@@H]4COP(=O)(O)O[C@@H]2[C@@H]3O)c(=O)[nH]1 [cGAMP, 2′, 3′ cyclic guanosine monophosphate-adenosine monophosphate]	phosphate) 2,15,	Greater than 6.5	7.20	12.33	
